Patent US20150336889A1, “INDOLE DERIVATIVES, PHARMACEUTICAL COMPOSITIONS CONTAINING SUCH INDOLES AND THEIR USE AS DNA METHYLATION MODULATORS” (IKERCHEM, S.L., priority 2012, published 2015)

What was measured:
Human DNMT1 = molecular target: T1, Human DNMT1 (Homo sapiens, UniProt P26358); test: DNMT1 enzymatic activity inhibition, radioisotope-based 3H-SAM filter binding assay; assay type: biochemical; conditions: 1 μM SAM, 25 nM DNMT1, 0.005 mg/ml Poly(dI-dC), 30° C. 1 hour, 10-dose
T1 construct: a-a 2-1632, with N-terminal GST tag; GST (N)
T1 sequence (P26358 2-1632 isoform P26358-2): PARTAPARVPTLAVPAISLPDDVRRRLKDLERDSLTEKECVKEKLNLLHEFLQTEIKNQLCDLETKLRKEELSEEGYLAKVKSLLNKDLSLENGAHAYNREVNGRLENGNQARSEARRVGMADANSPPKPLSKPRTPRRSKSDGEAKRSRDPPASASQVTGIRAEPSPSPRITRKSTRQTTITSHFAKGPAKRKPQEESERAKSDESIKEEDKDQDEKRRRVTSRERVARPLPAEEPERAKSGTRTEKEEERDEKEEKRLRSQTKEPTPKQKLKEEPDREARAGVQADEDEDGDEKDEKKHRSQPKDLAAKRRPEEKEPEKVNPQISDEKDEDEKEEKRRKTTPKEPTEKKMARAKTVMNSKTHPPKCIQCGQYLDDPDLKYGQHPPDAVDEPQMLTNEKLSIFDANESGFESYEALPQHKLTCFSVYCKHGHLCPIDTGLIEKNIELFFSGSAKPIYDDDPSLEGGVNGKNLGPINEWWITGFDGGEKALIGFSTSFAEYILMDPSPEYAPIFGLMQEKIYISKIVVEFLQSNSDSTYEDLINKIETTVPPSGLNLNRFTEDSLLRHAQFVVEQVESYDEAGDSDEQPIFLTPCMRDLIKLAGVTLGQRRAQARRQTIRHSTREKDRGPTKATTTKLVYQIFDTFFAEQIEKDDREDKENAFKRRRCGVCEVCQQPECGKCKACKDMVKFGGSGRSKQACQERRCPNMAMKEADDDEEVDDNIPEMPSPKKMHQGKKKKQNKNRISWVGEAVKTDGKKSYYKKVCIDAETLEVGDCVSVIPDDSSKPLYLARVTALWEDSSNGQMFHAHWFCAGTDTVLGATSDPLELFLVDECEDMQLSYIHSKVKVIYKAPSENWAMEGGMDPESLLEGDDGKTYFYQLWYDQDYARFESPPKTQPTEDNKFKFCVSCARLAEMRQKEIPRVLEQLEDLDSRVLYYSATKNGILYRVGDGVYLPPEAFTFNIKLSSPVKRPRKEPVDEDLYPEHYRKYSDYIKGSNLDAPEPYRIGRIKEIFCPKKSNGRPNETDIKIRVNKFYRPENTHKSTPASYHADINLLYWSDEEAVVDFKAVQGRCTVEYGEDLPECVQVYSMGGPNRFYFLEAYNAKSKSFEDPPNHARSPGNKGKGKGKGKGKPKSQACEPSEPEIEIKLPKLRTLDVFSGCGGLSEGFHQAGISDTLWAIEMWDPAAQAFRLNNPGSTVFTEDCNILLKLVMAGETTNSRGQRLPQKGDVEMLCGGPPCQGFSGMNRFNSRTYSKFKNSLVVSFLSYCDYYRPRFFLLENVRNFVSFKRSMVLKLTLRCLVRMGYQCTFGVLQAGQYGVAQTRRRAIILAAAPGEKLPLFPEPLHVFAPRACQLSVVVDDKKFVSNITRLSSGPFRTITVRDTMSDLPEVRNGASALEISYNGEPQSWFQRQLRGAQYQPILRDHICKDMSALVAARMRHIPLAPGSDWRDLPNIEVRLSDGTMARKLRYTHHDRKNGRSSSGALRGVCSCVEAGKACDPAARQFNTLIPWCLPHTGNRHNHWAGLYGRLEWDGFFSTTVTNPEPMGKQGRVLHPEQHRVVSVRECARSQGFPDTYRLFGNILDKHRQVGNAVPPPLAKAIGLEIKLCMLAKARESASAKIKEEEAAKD
Description: The inhibition of the enzymatic activity of DNMT1 was tested using low volume radioisotope-based assay which uses tritium-labeled AdoMet (^3H-SAM) as a methyl donor. Inhibitors diluted in DMSO were added by using acoustic technology (Echo550, Labcyte Inc. Sunnyvale, Calif.) into enzyme/substrate mixture in nano-liter range. The reaction was initiated by the addition of ^3H-SAM, and incubated at 30° C. for 1 hour. Total final methylations on the substrate poly(dI-dC) were detected by a filter binding approach. Data analysis was performed using GraphPad Prism software (La Jolla, Calif.) for IC50 curve fits.

MCF-7 = test: Cancer cell growth inhibition, MCF-7; assay type: cell-based; conditions: Homo sapiens, MCF7; Breast, MCF-7, cell viability, 72 h
Description: (§1) Cell culture-based assays were used to evaluate the ability of compounds of the invention to inhibit cancer cell growth inhibition.
(§2) Cells were obtained from the American Type Culture Collection (ATCC) and European Collection of Cell Cultures (ECACC).
(§3) Cells were thawed in their appropriate media plus supplements (see table below). Cells were passaged at confluence by washing once in HBSS cation-free followed by a 3 minutes incubation with trypsin ([0.5 μg/ml]/EDTA [0.2 μg/ml]) (Gibco-BRL, 15400054) solution in HBSS at 37° C. (except non-adherent cell lines), and transferred to their appropriate media plus supplements. Prior to seeding at defined cell concentration, cells were recovered in medium, centrifuged and taken up in medium, and counted.
(§4) Cells were plated at 3000/5000/10000 cells/well in 100 μl media in tissue culture 96 well plates (Cultek). After 24 h, media was supplemented by 100 μl/well of diluted IPDNs at 100 μM.
(§5) The Hexosaminidase assay was used for the adherent cell lines, whereas the AlamarBlue® assay was used for the non-adherent cell lines.
(§6) Dose-response curves were generated by serial dilutions (1:1) of the compounds. […] Reagent blanks, containing media plus colorimetric reagent without cells were run on each plate. Blank values were subtracted from test values and were routinely 5-10% of uninhibited control values. Plates were incubated 72 h, and living cell number was determined by AlamarBlue® and Hexosaminidase test. The advantages of using those assays are that both can be done in the same microwell plate. AlamarBlue® assay: plates were incubated 72 h and living cell number was determined by AlamarBlue (Biosource DAL1100). After 4 h incubation at 37° C., relative fluorescent intensity, which correlates with the number of living cells, was read in a Cytofluor plate reader (Millipore) at 535/590 nm (Excitation/emission). The hexosaminidase activity was measured according to the following protocol: the media was removed and cells were washed once with PBS.
(§7) Data analysis was done by calculating the percentage of cell viability normalized in front of negative control values, which were considered as a 100%. The curve was adjusted using a sigmoidal dose-response (variable slope) equation and EC50 values were obtained from the equation
(§8) where, X is the logarithm of concentration. Y is the response. Bottom is the Y value at the bottom plateau Top is the Y value at the top plateau LogEC50 is the X value when the response is halfway between Bottom and Top. With different kinds of variables, this variable is sometimes called ED50 (effective dose, 50%), or IC50 (inhibitory concentration, 50%, used when the curve goes downhill).

T47D = test: Cancer cell growth inhibition, T47D; assay type: cell-based; conditions: Homo sapiens, Breast, cell viability, 72 h
Description: as §1, §2, §3, §4, §5, §6, §7, §8

DU-145 = test: Cancer cell growth inhibition, DU-145; assay type: cell-based; conditions: Homo sapiens; Prostate, DU-145, cell viability, 72 h
Description: as §1, §2, §3, §4, §5
as §6, with “PBS. […]” for “PBS.”

PC3 = test: Cancer cell growth inhibition, PC3; assay type: cell-based; conditions: Homo sapiens, PC-3; Prostate, PC3, cell viability, 72 h
Description: as §1, §2, §3, §4, §5, §6, §7, §8

LnCaP = test: Cancer cell growth inhibition, LnCaP; assay type: cell-based; conditions: Homo sapiens, Prostate, cell viability, 72 h
Description: as §1, §2, §3, §4, §5, §6, §7, §8

HCT-116 = test: Cancer cell growth inhibition, HCT-116; assay type: cell-based; conditions: Homo sapiens; Colorectal, HCT-116, cell viability, 72 h
Description: as §1, §2, §3, §4, §5, §6, §7, §8

Colo205 = test: Cancer cell growth inhibition, Colo205; assay type: cell-based; conditions: Homo sapiens, COLO 205; Colorectal, Colo205, cell viability, 72 h
Description: as §1, §2, §3, §4, §5
as §6, with “PBS. […]” for “PBS.”

LoVo = test: Cancer cell growth inhibition, LoVo; assay type: cell-based; conditions: Homo sapiens, Colorectal, cell viability, 72 h
Description: as §1, §2, §3, §4, §5
as §6, with “PBS. […]” for “PBS.”

SW-480 = test: Cancer cell growth inhibition, SW-480; assay type: cell-based; conditions: Homo sapiens, SW480; Colorectal, SW-480, cell viability, 72 h
Description: as §1, §2
as §3, with “counted. […]” for “counted.”
(§9) Dose-response curves were generated by serial dilutions (1:1) of the compounds. […] Plates were incubated 72 h, and living cell number was determined by AlamarBlue® and Hexosaminidase test. […] AlamarBlue® assay: plates were incubated 72 h and living cell number was determined by AlamarBlue (Biosource DAL1100). After 4 h incubation at 37° C., relative fluorescent intensity, which correlates with the number of living cells, was read in a Cytofluor plate reader (Millipore) at 535/590 nm (Excitation/emission). The hexosaminidase activity was measured according to the following protocol: the media was removed and cells were washed once with PBS. […]

LS174T = test: Cancer cell growth inhibition, LS174T; assay type: cell-based; conditions: Homo sapiens, Colorectal, cell viability, 72 h
Description: as §1, §2
as §3, with “counted. […]” for “counted.”
as §9

A-549 = test: Cancer cell growth inhibition, A-549; assay type: cell-based; conditions: Homo sapiens, A549; Lung, A-549, cell viability, 72 h
Description: as §1, §2, §3, §4, §5, §6, §7, §8

NCI-H1975 = test: Cancer cell growth inhibition, NCI-H1975; assay type: cell-based; conditions: Homo sapiens; Lung, NCI-H1975, cell viability, 72 h
Description: as §1, §2, §3, §4, §5, §6, §7, §8

NCI-H1650 = test: Cancer cell growth inhibition, NCI-H1650; assay type: cell-based; conditions: Homo sapiens; Lung, NCI-H1650, cell viability, 72 h
Description: as §1, §2, §3, §4, §5
as §6, with “PBS. […]” for “PBS.”

NCI-H358 = test: Cancer cell growth inhibition, NCI-H358; assay type: cell-based; conditions: Homo sapiens; Lung, NCI-H358, cell viability, 72 h
Description: as §1, §2, §3, §4, §5, §6, §7, §8

HT-1080 = test: Cancer cell growth inhibition, HT-1080; assay type: cell-based; conditions: Homo sapiens; HT-1080, cell viability, 72 h
Description: as §1, §2, §3, §4, §5, §6, §7, §8

MiaPaCa-2 = test: Cancer cell growth inhibition, MiaPaCa-2; assay type: cell-based; conditions: Homo sapiens, MIA PaCa-2; Pancreatic, MiaPaCa-2, cell viability, 72 h
Description: as §1, §2, §3, §4, §5, §6, §7, §8

Panc-1 = test: Cancer cell growth inhibition, Panc-1; assay type: cell-based; conditions: Homo sapiens; Pancreatic, Panc-1, cell viability, 72 h
Description: as §1, §2, §3, §4, §5, §6, §7, §8

MDA-MB-435 = test: Cancer cell growth inhibition, MDA-MB-435; assay type: cell-based; conditions: Homo sapiens; Melanoma, MDA-MB-435, cell viability, 72 h
Description: as §1, §2, §3, §4, §5, §6, §7, §8

SK-MEL-28 = test: Cancer cell growth inhibition, SK-MEL-28; assay type: cell-based; conditions: Homo sapiens; Melanoma, SK-MEL-28, cell viability, 72 h
Description: as §1, §2, §3, §4, §5
as §6, with “PBS. […]” for “PBS.”

143B = test: Cancer cell growth inhibition, 143B; assay type: cell-based; conditions: Homo sapiens, Osteosarcoma, cell viability, 72 h
Description: as §1, §2, §3, §4, §5, §6, §7, §8

Daoy = test: Cancer cell growth inhibition, Daoy; assay type: cell-based; conditions: Homo sapiens, Brain, cell viability, 72 h
Description: as §1, §2, §3, §4, §5, §6, §7, §8

U-373MG = test: Cancer cell growth inhibition, U-373MG; assay type: cell-based; conditions: Homo sapiens, U373 MG, Brain, cell viability, 72 h
Description: as §1, §2, §3, §4, §5
as §6, with “PBS. […]” for “PBS.”

U-87MG = test: Cancer cell growth inhibition, U-87MG; assay type: cell-based; conditions: Homo sapiens, Brain, cell viability, 72 h
Description: as §1, §2, §3, §4, §5, §6, §7, §8

SK-OV-3 = test: Cancer cell growth inhibition, SK-OV-3; assay type: cell-based; conditions: Homo sapiens; Ovarian, SK-OV-3, cell viability, 72 h
Description: as §1, §2, §3, §4, §5
as §6, with “PBS. […]” for “PBS.”

CCFR-CEM = test: Cancer cell growth inhibition, CCFR-CEM; assay type: cell-based; conditions: Hematologic, cell viability, 72 h
Description: as §1, §2, §3, §4, §5, §6, §7, §8

Jurkat = test: Cancer cell growth inhibition, Jurkat; assay type: cell-based; conditions: Homo sapiens, Hematologic, cell viability, 72 h
Description: as §1, §2, §3, §4, §5, §6, §7, §8

K562 = test: Cancer cell growth inhibition, K562; assay type: cell-based; conditions: Homo sapiens; Hematologic, K562, cell viability, 72 h
Description: as §1, §2, §3, §4, §5
as §6, with “PBS. […]” for “PBS.”

RAMOS = test: Cancer cell growth inhibition, RAMOS; assay type: cell-based; conditions: Homo sapiens, Hematologic, cell viability, 72 h
Description: as §1, §2, §3, §4, §5, §6, §7, §8

RPMI-8226 = test: Cancer cell growth inhibition, RPMI-8226; assay type: cell-based; conditions: Homo sapiens; Multiple Myelome, RPMI-8226, cell viability, 72 h
Description: as §1, §2, §3, §4, §5, §6, §7, §8

IC50 (Human DNMT1): 39.4 µM
EC50 (MCF-7): 12 µM
EC50 (T47D): 30 µM
EC50 (DU-145): 47 µM
EC50 (PC3): 26 µM
EC50 (LnCaP): 30 µM
EC50 (HCT-116): 22 µM
EC50 (Colo205): 24 µM
EC50 (LoVo): 50 µM
EC50 (SW-480): 24 µM
EC50 (LS174T): 62 µM
EC50 (A-549): 35 µM
EC50 (NCI-H1975): 30 µM
EC50 (NCI-H1650): 57 µM
EC50 (NCI-H358): 51 µM
EC50 (HT-1080): 20 µM
EC50 (MiaPaCa-2): 65 µM
EC50 (Panc-1): 23 µM
EC50 (MDA-MB-435): 11 µM
EC50 (SK-MEL-28): 33 µM
EC50 (143B): 99 µM
EC50 (Daoy): 6.6 µM
EC50 (U-373MG): 58 µM
EC50 (U-87MG): 50 µM
EC50 (SK-OV-3): 73 µM
EC50 (CCFR-CEM): 7.6 µM
EC50 (Jurkat): 8.9 µM
EC50 (K562): 69 µM
EC50 (RAMOS): 12 µM
EC50 (RPMI-8226): 60 µM
SMILES: COc1cc(OC)c2c(-c3ccc(O)c(O)c3O)cn(CC(=O)c3ccc(O)c(O)c3O)c2c1 [Example 11, 2-[4,6-dimethoxy-3-(2,3,4-trihydroxyphenyl)-1H-indol-1-yl]-1-(2,3,4-trihydroxyphenyl)ethanone]
